Experimental data from patent US20190037899A1, “Intramolecular Trans-Sialidase” (THE INSTITUTE OF FOOD RESEARCH, priority 2016, published 2019).

Key:
sialic acid aldolase = molecular target: T1, sialic acid aldolase (Escherichia coli, UniProt P0A6L4); test: Degradation of 2,7-anhydro-Neu5Ac by sialic acid aldolase; format: biochemical
T1 construct: purchased Carbosynth Limited (Compton, UK)
Experimental: A dialysis membrane (7K MWCO) containing fetuin (0.3 mM) was incubated in 100 mM ammonium formate buffer pH 6.5 for 2 h at 37° C. under gentle shaking (115 rpm). Following the addition of 50 nM RgNanH (in Tris buffer 40 mM pH 7.9) into the dialysis membrane, the reaction mixture was further incubated in 100 mM ammonium formate buffer (pH 6.5) at 115 rpm, 37° C. for 24 h. Sialic acid aldolase (17.4 units in 100 mM ammonium formate) was added to the membrane enclosed reaction mixture. Following a further 20 h incubation at 115 rpm and 37° C., 100 mL of buffer was recovered, diluted with 100 mL of ultrapure water and freeze dried. The membrane enclosed reaction mixture was dialysed with 100 mL ultrapure water for 2 h and again overnight under 115 rpm shaking and at 37° C. The water was recovered, mixed with the dried synthesis buffer and freeze dried. After complete dryness, the powder was dissolved in 100 mL ultrapure water and freeze dried again 3 times to remove volatile salts.
Considering the difficulty and the low efficiency of the separation of free Neu5Ac from 2,7-anhydro-Neu5Ac, a commercially available sialic acid aldolase from E. coli was introduced into the dialysis membrane with RgNanH and fetuin. […]

[1] = Spontaneous conversion of 2,7-anhydro-Neu5Ac to Neu5Ac (1H NMR, HPAEC-PAD); format: physicochemical; details: up to 24 h at 37° C.
[2] = tested on: R. gnavus strains (ATCC 29149 and ATCC 35913); test: Growth of R. gnavus strains on 2,7-anhydro-Neu5Ac as sole carbon source; format: cell-based, Ruminococcus gnavus; details: anaerobic
Experimental: The ability of pathogens to utilise 2,7-anhydroSA as a potential nutrient by growing the cells in presence of 2,7-anhydroSA (or sialic acid as a control) as sole carbon source under anaerobic conditions is tested. […] The ability of these pathogens to utilise 2,7-anhydro-Neu5Ac is tested by growing the cells in vitro with 2,7-anhydro-Neu5Ac synthesised using the enzymatic synthesis as described above, as sole carbon source. Growth is determined spectrophotometrically and analysed using an appropriately developed DMFit program to compare the effect of the carbon source on growth rates. The impact of ITS on the ability of pathogens to grow on mucins purified from human “goblet-like” cells is tested in co-culture experiments with R. gnavus strains (ATCC 29149 expressing ITS and E1 as a negative control) in anaerobic continuous reactors.

T1 sequence (P0A6L4 whole entry): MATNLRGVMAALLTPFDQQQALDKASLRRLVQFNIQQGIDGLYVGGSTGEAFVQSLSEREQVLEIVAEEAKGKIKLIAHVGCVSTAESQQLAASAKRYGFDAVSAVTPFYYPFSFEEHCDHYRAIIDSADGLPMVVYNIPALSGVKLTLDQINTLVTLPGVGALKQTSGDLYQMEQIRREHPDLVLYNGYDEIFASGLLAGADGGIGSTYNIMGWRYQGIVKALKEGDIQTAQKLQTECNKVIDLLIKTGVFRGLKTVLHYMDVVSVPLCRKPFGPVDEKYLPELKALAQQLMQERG

## CC(=O)N[C@H]1[C@H]2O[C@@](C(=O)O)(C[C@@H]1O)O[C@@H]2[C@H](O)CO [2,7-anhydro-Neu5Ac, 2,7-anhydro-α-N-acetylneuraminic acid]
Sialic acid aldolase
  Degradation by sialic acid aldolase: resistant to degradation
[1]
  Spontaneous conversion of 2,7-anhydro-Neu5Ac to Neu5Ac: no spontaneous conversion
[2]
  Growth of R. gnavus strains on the compound as sole carbon source: able to grow
